This is an account of results in patent US10376481B2, “Compounds and methods for inhibiting NHE-mediated antiport in the treatment of disorders associated with fluid retention or salt overload and gastrointestinal tract disorders” (ARDELYX, INC, priority 2012, dated 2019).

Where only a bound is given, the exact number is not on record here.

Test [1] addresses T1, human NHE3 (Homo sapiens, UniProt P48764).
T1 sequence (P48764 26-834): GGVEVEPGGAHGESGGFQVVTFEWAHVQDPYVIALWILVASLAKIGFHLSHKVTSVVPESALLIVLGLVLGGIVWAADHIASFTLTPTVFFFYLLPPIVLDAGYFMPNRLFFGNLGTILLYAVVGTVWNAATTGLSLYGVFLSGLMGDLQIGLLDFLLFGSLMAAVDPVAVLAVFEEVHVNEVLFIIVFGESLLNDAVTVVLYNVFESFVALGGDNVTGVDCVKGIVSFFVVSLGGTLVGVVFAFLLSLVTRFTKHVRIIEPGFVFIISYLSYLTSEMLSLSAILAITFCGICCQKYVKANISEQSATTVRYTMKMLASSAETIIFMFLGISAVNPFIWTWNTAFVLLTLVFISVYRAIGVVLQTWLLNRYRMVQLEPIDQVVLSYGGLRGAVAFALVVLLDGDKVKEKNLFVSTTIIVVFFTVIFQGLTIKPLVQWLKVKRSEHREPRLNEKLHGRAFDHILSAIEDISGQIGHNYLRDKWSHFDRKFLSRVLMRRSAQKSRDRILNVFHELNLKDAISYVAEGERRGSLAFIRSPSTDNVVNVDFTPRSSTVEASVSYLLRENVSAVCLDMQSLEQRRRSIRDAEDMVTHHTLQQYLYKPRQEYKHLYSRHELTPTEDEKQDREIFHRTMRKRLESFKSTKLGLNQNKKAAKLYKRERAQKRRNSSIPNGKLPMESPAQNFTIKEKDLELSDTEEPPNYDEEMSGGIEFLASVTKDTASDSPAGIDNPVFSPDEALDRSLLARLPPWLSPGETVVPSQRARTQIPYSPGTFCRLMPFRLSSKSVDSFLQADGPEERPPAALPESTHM
Briefly: Cell-based assay of NHE-3 activity (persistent inhibition), human. To be noted: PS120 fibroblasts stably expressing human NHE3, 60 min incubation then washout; for IC50: read-out: pIC50 (human Persistence assay) (converted). How it is done:
The ability of compounds to inhibit human and rat NHE-3-mediated Na^+-dependent H^+ antiport after application and washout was measured using a modification of the pH sensitive dye method described above. PS120 fibroblasts stably expressing human NHE3 were obtained from Mark Donowitz (Baltimore, Md.). Opossum kidney (OK) cells were obtained from the ATCC and propagated per their instructions. The rat NHE-3 gene was introduced into OK cells via electroporation, and cells were seeded into 96 well plates and grown overnight. Medium was aspirated from the wells, cells were washed once with NaCl-HEPES buffer (100 mM NaCl, 50 mM HEPES, 10 mM glucose, 5 mM KCl, 2 mM CaCl2, 1 mM MgCl2, pH 7.4), then overlayed with NaCl-HEPES buffer containing 0-30 μM test compound. After a 60 min incubation at room temperature, the test drug containing buffer was aspirated from the cells. Following aspiration, cells were washed once with NaCl-HEPES buffer without drug, then incubated for 30 min at 37° C. with NH4Cl-HEPES buffer (20 mM NH4Cl, 80 mM NaCl, 50 mM HEPES, 5 mM KCl, 2 mM CaCl2, 1 mM MgCl2, pH 7.4) containing 5 μM BCECF-AM. Cells were washed once with Ammonium free, Na^+-free HEPES (100 mM choline, 50 mM HEPES, 10 mM glucose, 5 mM KCl, 2 mM CaCl2, 1 mM MgCl2, pH 7.4) and incubated in the same buffer for 10 minutes at room temperature to lower intracellular pH. NHE-3-mediated recovery of neutral intracellular pH was initiated (10 min after compound washout) by addition of Na-HEPES buffer. […] Changes in intracellular pH were monitored using a FLIPR Tetra® (Molecular Devices, Sunnyvale, Calif.) by excitation at λex 439 to 505 nm, and measuring BCECF fluorescence at λem 538 nm. The initial rate of the fluorescence ratio change was used as a measure of NHE-mediated Na^+/H^+ activity, and reported as the change in fluorescence ratio per minute. Initial rates were plotted as the average 2 or more replicates, and pIC50 values were estimated using GraphPad Prism.

Test [2] concerns the target T1, human NHE3. As to the kind of experiment: Cell-based assay of NHE-3 activity (pre-incubation inhibition), human. To be noted: for IC50: PS120 fibroblasts stably expressing human NHE3, 10 min pre-incubation with 0-30 μM test compound, read-out: pIC50 (human Preincubation assay) (converted); for % inhibition (human Preincubation assay): PS120 fibroblasts stably expressing human NHE3, pre-incubation with test compound. As for the experimental part:
Rat and human NHE-3-mediated Na^+-dependent H^+ antiport was measured using a modification of the pH sensitive dye method originally reported by Paradiso (Proc. Natl. Acad. Sci. USA. (1984) 81(23): 7436-7440, which is hereby incorporated by reference in its entirety). PS120 fibroblasts stably expressing human NHE3 were obtained from Mark Donowitz (Baltimore, Md.). Opossum kidney (OK) cells were obtained from the ATCC and propagated per their instructions. The rat NHE-3 gene (GenBank M85300) was introduced into OK cells via electroporation, and cells were seeded into 96 well plates and grown overnight. Medium was aspirated from the wells then incubated for 30 min at 37° C. with NH4Cl-HEPES buffer (20 mM NH4Cl, 80 mM NaCl, 50 mM HEPES, 5 mM KCl, 2 mM CaCl2, 1 mM MgCl2, pH 7.4) containing 5 μM BCECF-AM. Cells were washed once with Ammonium free, Nat-free HEPES (100 mM choline, 50 mM HEPES, 10 mM glucose, 5 mM KCl, 2 mM CaCl2, 1 mM MgCl2, pH 7.4) and incubated in the same buffer for 10 minutes at room temperature to lower intracellular pH with 0-30 μM test compound. […] Changes in intracellular pH were monitored using a FLIPR Tetra® (Molecular Devices, Sunnyvale, Calif.) by excitation at λex 439 to 505 nm, and measuring BCECF fluorescence at λem 538 nm. The initial rate of the fluorescence ratio change was used as a measure of NHE-mediated Na^+/H^+ activity, and reported as the change in fluorescence ratio per minute. Initial rates were plotted as the average 2 or more replicates, and pIC50 values were estimated using GraphPad Prism.

Consider `N[C@@H]1CCCN([C@H]2Cc3c(Cl)cc(Cl)cc3[C@@H]2Oc2ccc(S(=O)(=O)NCCOCCOCCNC(=O)NCCCCNC(=O)NCCOCCOCCNS(=O)(=O)c3ccc(O[C@H]4c5cc(Cl)cc(Cl)c5C[C@@H]4N4CCC[C@@H](N)C4)cc3)cc2)C1` [Example 3, (S,S,R)—N,N′-(10,17-dioxo-3,6,21,24-tetraoxa-9,11,16,18-tetraazahexacosane-1,26-diyl)bis(4-((1S,2S)-2-((R)-3-aminopiperidin-1-yl)-4,6-dichloro-2,3-dihydro-1H-inden-1-yloxy)benzenesulfonamide)], for which, at human NHE3 [1], the “% inhibition (human Persistence assay)” value was “C (>70%)” and the IC50 was under 100 nM. Also, at human NHE3 [2], the IC50 was under 100 nM and the “% inhibition (human Preincubation assay)” value is recorded as “C (>70%)”.
As for `CN(C)[C@H]1Cc2c(Cl)cc(Cl)cc2[C@@H]1Oc1ccc(S(=O)(=O)NCCOCCOCCNC(=O)NCCCCNC(=O)NCCOCCOCCNS(=O)(=O)c2ccc(O[C@H]3c4cc(Cl)cc(Cl)c4C[C@@H]3N(C)C)cc2)cc1` [Example 1, (S,S)—N,N′-(10,17-dioxo-3,6,21,24-tetraoxa-9,11,16,18-tetraazahexacosane-1,26-diyl)bis(4-((1S,2S)-4,6-dichloro-2-(dimethylamino)-2,3-dihydro-1H-inden-1-yloxy)benzenesulfonamide)], on human NHE3 [1], the “% inhibition (human Persistence assay)” value was “C (>70%)” and the IC50 was under 100 nM. Further, at human NHE3 [2], the IC50 was under 100 nM and the “% inhibition (human Preincubation assay)” value is recorded as “C (>70%)”.
In the case of `O=C(NCCCCNC(=O)NCCOCCOCCOCCNS(=O)(=O)c1ccc(O[C@H]2c3ccccc3C[C@@H]2N2CCCCC2)cc1)NCCOCCOCCOCCNS(=O)(=O)c1ccc(O[C@H]2c3ccccc3C[C@@H]2N2CCCCC2)cc1` [Example 16], on human NHE3 [1], the “% inhibition (human Persistence assay)” value is “B (40-70%)” and the IC50 is over 1000 nM. For the same compound, at human NHE3 [2], the IC50 is under 100 nM and the “% inhibition (human Preincubation assay)” value was “C (>70%)”.
In the same order, the values of `CN(C)[C@H]1Cc2c(F)cc(Cl)cc2[C@@H]1Oc1ccc(S(=O)(=O)NCCOCCOCCNC(=O)NCCCCNC(=O)NCCOCCOCCNS(=O)(=O)c2ccc(O[C@H]3c4cc(Cl)cc(F)c4C[C@@H]3N(C)C)cc2)cc1` [Example 25] are “C (>70%)”, under 100 nM, under 100 nM and “C (>70%)”.
Take `O=C(NCCCCNC(=O)NCCOCCOCCNS(=O)(=O)c1ccc(O[C@H]2c3cc(Cl)cc(F)c3C[C@@H]2N2CC[C@@H](O)C2)cc1)NCCOCCOCCNS(=O)(=O)c1ccc(O[C@H]2c3cc(Cl)cc(F)c3C[C@@H]2N2CC[C@@H](O)C2)cc1` [Example 4, (S,S,R)—N,N′-(10,17-dioxo-3,6,21,24-tetraoxa-9,11,16,18-tetraazahexacosane-1,26-diyl)bis(4-((1S,2S)-6-chloro-4-fluoro-2-((R)-3-hydroxypyrrolidin-1-yl)-2,3-dihydro-1H-inden-1-yloxy)benzenesulfonamide)]: on human NHE3 [1], the “% inhibition (human Persistence assay)” value is reported as “B (40-70%)” and the IC50 is under 100 nM. On human NHE3 [2], the IC50 is under 100 nM and the “% inhibition (human Preincubation assay)” value was “C (>70%)”.
For `CN(C)[C@H]1Cc2ccc(F)cc2[C@@H]1Oc1ccc(S(=O)(=O)NCCOCCOCCNC(=O)NCCCCNC(=O)NCCOCCOCCNS(=O)(=O)c2ccc(O[C@H]3c4cc(F)ccc4C[C@@H]3N(C)C)cc2)cc1` [Example 22], on human NHE3 [1], the “% inhibition (human Persistence assay)” value was “A (NHE3 <40%)” and the IC50 was over 1000 nM. For the same compound, at human NHE3 [2], the IC50 was under 100 nM and the “% inhibition (human Preincubation assay)” value was “C (>70%)”.
For `O=C(NCCCCNC(=O)NCCOCCOCCNS(=O)(=O)c1ccc(O[C@H]2c3cc(Cl)cc(Cl)c3C[C@@H]2N2CCCCC2)cc1)NCCOCCOCCNS(=O)(=O)c1ccc(O[C@H]2c3cc(Cl)cc(Cl)c3C[C@@H]2N2CCCCC2)cc1` [Example 15], in that order: “C (>70%)”, over 1000 nM, under 100 nM and “B (40-70%)”.
For `CN(C)[C@H]1Cc2c(Cl)cc(Cl)cc2[C@@H]1Oc1ccc(S(=O)(=O)NCCOCCOCCNC(=O)COCC(=O)NCCOCCOCCNS(=O)(=O)c2ccc(O[C@H]3c4cc(Cl)cc(Cl)c4C[C@@H]3N(C)C)cc2)cc1` [Example 9, 2,2′-oxybis(N-(2-(2-(2-(4-((1S,2S)-4,6-dichloro-2-(dimethylamino)-2,3-dihydro-1H-inden-1-yloxy)phenylsulfonamido)ethoxy)ethoxy)ethyl)acetamide)], in that order: “C (>70%)”, 100 to 1000 nM, under 100 nM and “C (>70%)”.
In the same order, the values of `O=C(NCCCCNC(=O)NCCOCCOCCNS(=O)(=O)c1ccc(O[C@H]2c3cc(Cl)cc(Cl)c3C[C@@H]2N2CC[C@@H](O)C2)cc1)NCCOCCOCCNS(=O)(=O)c1ccc(O[C@H]2c3cc(Cl)cc(Cl)c3C[C@@H]2N2CC[C@@H](O)C2)cc1` [Example 30] are “C (>70%)”, under 100 nM, under 100 nM and “C (>70%)”.
In the case of `CN(C)[C@H]1Cc2c(Cl)cc(Cl)cc2[C@@H]1Oc1ccc(S(=O)(=O)NCCOCCOCCNC(=O)[C@H](O)[C@@H](O)C(=O)NCCOCCOCCNS(=O)(=O)c2ccc(O[C@H]3c4cc(Cl)cc(Cl)c4C[C@@H]3N(C)C)cc2)cc1` [Example 5, (2R,3R)—N1,N4-bis(2-(2-(2-(4-((1S,2S)-4,6-dichloro-2-(dimethylamino)-2,3-dihydro-1H-inden-1-yloxy)phenylsulfonamido)ethoxy)ethoxy)ethyl)-2,3-dihydroxysuccinamide], at human NHE3 [1], the “% inhibition (human Persistence assay)” value is listed as “C (>70%)” and the IC50 is 100 to 1000 nM. In addition, at human NHE3 [2], the IC50 was under 100 nM and the “% inhibition (human Preincubation assay)” value is given as “C (>70%)”.
